Measured values published in patent EP4603105A1, “PHARMACEUTICAL COMPOSITION CONTAINING CYCLIC COMPOUND HAVING SELECTIVE KRAS INHIBITORY EFFECT AGAINST HRAS AND NRAS” (CHUGAI SEIYAKU KABUSHIKI KAISHA, priority 2022, dated 2024).
*1 amine or outer side, *2 acyl side, *3 side chain or, on linkers, in order; H or OH if unused. Where a SMILES comes first, the peptide text is derived from it. Bridges are numbered along the chain shown (N, C = ends). [ ]: non-standard residue; d: D form. The star is where a group is joined. hPhe(3,5-F2-4-CF3) = N[C@@H](CCc1cc(F)c(C(F)(F)F)c(F)c1)C(=O)O; hPhe(3-Cl-4-CF3) = N[C@@H](CCc1ccc(C(F)(F)F)c(Cl)c1)C(=O)O; X42 = Cc1ccc(C[C@@H](C(=O)[*:2])N(CCC(F)(F)F)[*:1])cc1; NPrPhe(4-CF3) = CCCN[C@@H](Cc1ccc(C(F)(F)F)cc1)C(=O)O; X44 = Cc1ccc(C[C@@H](C(=O)[*:2])N(CC2CCC2)[*:1])cc1; NMeGly(cPent) = CN[C@H](C(=O)O)C1CCCC1; Pro(4S-Me) = C[C@@H]1CN[C@H](C(=O)O)C1; NMeF = CN[C@@H](Cc1ccccc1)C(=O)O; NMeD = CN[C@@H](CC(=O)O)C(=O)O; NMeL = CN[C@@H](CC(C)C)C(=O)O; NMeAbu = CC[C@H](NC)C(=O)O; αMeS = C[C@](N)(CO)C(=O)O; Morpholide = C1CN(*)CCO1; NMeA = CN[C@@H](C)C(=O)O; Ac5c = NC1(C(=O)O)CCCC1; Aze = O=C(O)[C@@H]1CCN1; Sar = CNCC(=O)O; tBu = CC(C)(C)*

What was measured:
[1] = molecular target: GDP-bound NRAS wild-type protein (Homo sapiens, UniProt P01111); assay: Binding to NRAS by surface plasmon resonance (SPR), KD and KD ratio to KRAS
Chain of GDP-bound NRAS wild-type protein (P01111 whole entry): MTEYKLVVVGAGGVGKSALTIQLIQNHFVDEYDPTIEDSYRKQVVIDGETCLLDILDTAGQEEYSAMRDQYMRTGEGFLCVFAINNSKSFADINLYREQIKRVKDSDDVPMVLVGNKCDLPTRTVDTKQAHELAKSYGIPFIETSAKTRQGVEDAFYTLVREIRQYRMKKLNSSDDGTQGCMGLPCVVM
In short: (§1)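 Compound binding is evaluated by SPR single-cycle kinetics, with concentrations added intermittently from low to high for 75 s each. Target surfaces carry GDP-loaded biotinylated Avi-RAS at about 100–300 RU, regenerated after each cycle; temperature 30°C. A 1:1 binding model gives KD.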

[2] = system: human lung cancer strain NCI-H441; type: cell-based
In short: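 Proliferation was scored by […] measured after the reagent was added to cultures kept at 37°C in 5% carbon dioxide.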

HRAS wild-type protein = HRAS wild-type protein (Homo sapiens, UniProt P01112); assay: Binding to HRAS by surface plasmon resonance (SPR), KD and KD ratio to KRAS
Chain of HRAS wild-type protein (P01112 whole entry): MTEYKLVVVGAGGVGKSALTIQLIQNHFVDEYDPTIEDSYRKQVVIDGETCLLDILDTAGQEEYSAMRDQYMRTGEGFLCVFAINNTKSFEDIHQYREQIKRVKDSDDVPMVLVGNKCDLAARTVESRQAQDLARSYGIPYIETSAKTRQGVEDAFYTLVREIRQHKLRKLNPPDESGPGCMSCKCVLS
In short: as §1

[3] = ratio of the KD value with respect to GDP-bound NRAS wild-type protein to the KD value with respect to KRAS
[4] = ratio of the KD value with respect to HRAS wild-type protein to the KD value with respect to KRAS
[5] = ratio of KD for GDP-bound NRAS wild-type protein to KD for KRAS
[6] = ratio of KD for HRAS wild-type protein to KD for KRAS
[7] = ratio of KD value for GDP-bound NRAS wild-type protein to KD value for KRAS (SPR)
[8] = ratio of KD value for HRAS wild-type protein to KD value for KRAS (SPR)

Structure (SMILES) | NRAS /KRAS [1, 3] | IC50 [2] [nM] | HRAS /KRAS (HRAS wild-type protein; [4]) | NRAS /KRAS [1, 5] | HRAS /KRAS (HRAS wild-type protein; [6]) | NRAS /KRAS [1, 7] | HRAS /KRAS (HRAS wild-type protein; [8])
CCCN1C(=O)[C@@H]2CCN2C(=O)CN(C)C(=O)[C@H]([C@@H](C)CC)NC(=O)[C@H](CC(C)C)N(C)C(=O)C[C@@H](C(=O)N2CCOCC2)N(C)C(=O)[C@H](C2CCCC2)N(C)C(=O)C2(CCCC2)NC(=O)[C@@H]2C[C@H](C)CN2C(=O)[C@H](CCc2ccc(C(F)(F)F)c(Cl)c2)NC(=O)CN(C)C(=O)[C@@H]1Cc1ccc(C(F)(F)F)cc1 [PP0457] ([NMeL]I[Sar][Aze][NPrPhe(4-CF3)][Sar][hPhe(3-Cl-4-CF3)][Pro(4S-Me)][Ac5c][NMeGly(cPent)][NMeD]-Morpholide; lactam N-11) | C (A compound having a KD ratio of 0.1 or more and less than 3 is denoted as C) | 12.1 | B (a compound having 3 or more and less than 10 is denoted as B) |  |  |  | 
CC[C@H](C)[C@@H]1NC(=O)[C@H](CC(C)C)N(C)C(=O)C[C@@H](C(=O)N2CCOCC2)N(C)C(=O)[C@H](C2CCCC2)N(C)C(=O)C2(CCCC2)NC(=O)[C@@H]2CCCN2C(=O)[C@H](CCc2ccc(C(F)(F)F)c(Cl)c2)NC(=O)CN(C)C(=O)[C@H](Cc2ccc(C)cc2)N(CCC(F)(F)F)C(=O)[C@@H]2CCN2C(=O)[C@H](C)N(C)C1=O [PP0091] ([NMeL]I[NMeA][Aze][X42][Sar][hPhe(3-Cl-4-CF3)]P[Ac5c][NMeGly(cPent)][NMeD]-Morpholide; lactam N-11) |  | 4.1 |  | C (A compound having a KD ratio of 0.1 or more and less than 3 is denoted as C) | B (a compound having 3 or more and less than 10 is denoted as B) |  | 
CC[C@H](C)[C@@H]1NC(=O)[C@H](CC(C)C)N(C)C(=O)C[C@@H](C(=O)N2CCOCC2)N(C)C(=O)[C@H](C2CCCC2)N(C)C(=O)C2(CCCC2)NC(=O)[C@@H]2CCCN2C(=O)[C@H](CCc2ccc(C(F)(F)F)c(Cl)c2)NC(=O)CN(C)C(=O)[C@H](Cc2ccc(C)cc2)N(CC2CCC2)C(=O)CN(C)C(=O)CN(C)C1=O [PP0095] ([NMeL]I[Sar][Sar][X44][Sar][hPhe(3-Cl-4-CF3)]P[Ac5c][NMeGly(cPent)][NMeD]-Morpholide; lactam N-11) |  | 18.2 |  | C (A compound having a KD ratio of 0.1 or more and less than 3 is denoted as C) | C (A compound having a KD ratio of 0.1 or more and less than 3 is denoted as C) |  | 
CCC[C@H]1C(=O)N[C@@H]([C@@H](C)CC)C(=O)N(C)CC(=O)N(C)[C@H]2C/C=C\CCN(C2=O)[C@@H](Cc2ccc(C(F)(F)F)cc2)C(=O)N(C)CC(=O)N[C@@H](CCc2cc(F)c(C(F)(F)F)c(F)c2)C(=O)N2C[C@H](OCC)C[C@H]2C(=O)NC2(CC(C)(C)C2)C(=O)N(C)[C@@H](C2CCCC2)C(=O)N(C)[C@H](C(=O)N2CCC2)CC(=O)N1C [PP1943] | A (a compound having 10 or more and less than 20 is denoted as A) | 9.2 | B (a compound having 3 or more and less than 10 is denoted as B) |  |  |  | 
CCCN1C(=O)CN(C)C(=O)CN(C)C(=O)[C@H]([C@@H](C)CC)NC(=O)[C@H](CC)N(C)C(=O)C[C@@H](C(=O)N2CCOCC2)N(C)C(=O)[C@H](C2CCCC2)N(C)C(=O)C2(CCCC2)NC(=O)[C@@H]2CCCN2C(=O)[C@H](CCc2ccc(C(F)(F)F)c(Cl)c2)NC(=O)CN(C)C(=O)[C@@H]1Cc1ccc(C(F)(F)F)cc1 [PP0190] ([NMeAbu]I[Sar][Sar][NPrPhe(4-CF3)][Sar][hPhe(3-Cl-4-CF3)]P[Ac5c][NMeGly(cPent)][NMeD]-Morpholide; lactam N-11) |  | 4.1 |  | B (a compound having 3 or more and less than 10 is denoted as B) | B (a compound having 3 or more and less than 10 is denoted as B) |  | 
CCO[C@@H]1C[C@H]2C(=O)NC3(CCC3)C(=O)N(C)[C@@H](C3CCCC3)C(=O)N(C)[C@H](C3CCCCC3)CC(=O)N(C)[C@@H](COC)C(=O)N[C@@H]([C@@H](C)CC)C(=O)N(C)CC(=O)N(C)[C@H]3C/C=C\CCN(C3=O)[C@@H](Cc3ccc(C(F)(F)F)cc3)C(=O)N(C)CC(=O)N[C@@H](CCc3cc(F)c(C(F)(F)F)c(F)c3)C(=O)N2C1 [PP1584] |  | 66.4 |  |  |  | B (a compound having 3 or more and less than 10 is denoted as B) | B (a compound having 3 or more and less than 10 is denoted as B)
CCO[C@@H]1C[C@H]2C(=O)NC3(CCC3)C(=O)N(C)[C@@H](C3CCCC3)C(=O)N(C)[C@H](C(=O)N(C)C)CC(=O)N(C)[C@@H](CC)C(=O)N[C@@H]([C@@H](C)CC)C(=O)N(C)CC(=O)N(C)[C@H]3CCCCCN(C3=O)[C@@H](Cc3ccc(F)cc3OC)C(=O)N(C)CC(=O)N[C@@H](CCc3cc(F)c(C(F)(F)F)c(F)c3)C(=O)N2C1 [PP0914] |  | 40.2 |  | B (a compound having 3 or more and less than 10 is denoted as B) | B (a compound having 3 or more and less than 10 is denoted as B) |  | 
CCCN1C(=O)CN(C)C(=O)CN(C)C(=O)[C@H]([C@@H](C)CC)NC(=O)[C@H](CC(C)C)N(C)C(=O)C[C@@H](C(=O)N(C)C)N(C)C(=O)[C@H](C2CCCC2)N(C)C(=O)[C@](C)(COC(C)(C)C)NC(=O)[C@@H]2CCCN2C(=O)[C@H](CCc2cc(F)c(C(F)(F)F)c(F)c2)NC(=O)CN(C)C(=O)[C@@H]1Cc1ccc(C(F)(F)F)cc1 [PP0743] ([NMeL]I[Sar][Sar][NPrPhe(4-CF3)][Sar][hPhe(3,5-F2-4-CF3)]P[αMeS](tBu)[NMeGly(cPent)][NMeD]-NMe2; lactam N-11) | B (a compound having 3 or more and less than 10 is denoted as B) | 76.3 | C (A compound having a KD ratio of 0.1 or more and less than 3 is denoted as C) |  |  |  | 
CC[C@H](C)[C@@H]1NC(=O)[C@H](CC(C)C)N(C)C(=O)C[C@@H](C(=O)N2CCOCC2)N(C)C(=O)[C@H](C2CCCC2)N(C)C(=O)C2(CCCC2)NC(=O)[C@@H]2CCCN2C(=O)[C@H](CCc2ccc(C(F)(F)F)c(Cl)c2)NC(=O)CN(C)C(=O)[C@H](Cc2ccccc2)N(C)C(=O)[C@@H]2CCN2C(=O)[C@H](C)N(C)C1=O [PP0011] ([NMeL]I[NMeA][Aze][NMeF][Sar][hPhe(3-Cl-4-CF3)]P[Ac5c][NMeGly(cPent)][NMeD]-Morpholide; lactam N-11) |  | 5.8 |  | C (A compound having a KD ratio of 0.1 or more and less than 3 is denoted as C) | C (A compound having a KD ratio of 0.1 or more and less than 3 is denoted as C) |  | 
CCCN(C)C(=O)[C@@H]1CC(=O)N(C)[C@@H](COCC)C(=O)N[C@@H]([C@@H](C)CC)C(=O)N(C)CC(=O)N(C)[C@H]2C/C=C\CCN(C2=O)[C@@H](Cc2ccc(C(F)(F)F)cc2)C(=O)N(C)CC(=O)N[C@@H](CCc2cc(F)c(C(F)(F)F)c(F)c2)C(=O)N2C[C@H](OCC)C[C@H]2C(=O)NC2(CC(C)(C)C2)C(=O)N(C)[C@@H](C2CCCC2)C(=O)N1C [PP2031] | B (a compound having 3 or more and less than 10 is denoted as B) | 5.5 | B (a compound having 3 or more and less than 10 is denoted as B) |  |  |  | 
CCO[C@@H]1C[C@H]2C(=O)N(C)C3(CCCC3)C(=O)N(C)[C@@H](C3CCCC3)C(=O)N(C)[C@H](C(=O)N(C)C)CC(=O)N(C)[C@@H](C3CC3)C(=O)N[C@@H]([C@@H](C)CC)C(=O)N(C)CC(=O)N(C)[C@H]3C/C=C\CCN(C3=O)[C@@H](Cc3ccc(C)cc3)C(=O)N(C)CC(=O)N[C@@H](CCc3cc(F)c(C(F)(F)F)c(F)c3)C(=O)N2C1 [PP1808] |  | 8.8 |  |  |  | A (a compound having 10 or more and less than 20 is denoted as A) | B (a compound having 3 or more and less than 10 is denoted as B)
CCO[C@@H]1C[C@H]2C(=O)NC3(CCC3)C(=O)N(C)[C@@H](C3CCCC3)C(=O)N(C)[C@H](C(=O)N3CCOCC3)CC(=O)N(C)[C@@H](Cc3ccccc3C)C(=O)N[C@@H]([C@@H](C)CC)C(=O)N(C)CC(=O)N(C)[C@H]3CCCCCN(C3=O)[C@@H](Cc3ccc(C(F)(F)F)cc3)C(=O)N(C)CC(=O)N[C@@H](CCc3cc(F)c(C(F)(F)F)c(F)c3)C(=O)N2C1 [PP0931] |  | 181 |  | A (a compound having 10 or more and less than 20 is denoted as A) | B (a compound having 3 or more and less than 10 is denoted as B) |  | 
CC[C@H](C)[C@@H]1NC(=O)[C@H](CC(C)C)N(C)C(=O)C[C@@H](C(=O)N2CCOCC2)N(C)C(=O)[C@H](C2CCCC2)N(C)C(=O)C2(CCC2)NC(=O)[C@@H]2[C@H](O)CCN2C(=O)[C@H](CCc2cc(F)c(C(F)(F)F)c(F)c2)NC(=O)CN(C)C(=O)[C@H](Cc2ccc(C(F)(F)F)cc2)N2CCCC[C@@H](C2=O)N(C)C(=O)CN(C)C1=O [PP0870] |  | 79.7 |  | B (a compound having 3 or more and less than 10 is denoted as B) | B (a compound having 3 or more and less than 10 is denoted as B) |  | 
